Data as given in ChEMBL document CHEMBL5316337, “Critical Role of Position 10 Residue in the Polymyxin Antimicrobial Activity” (J Med Chem, 2023).
In brackets after ≈: the same amount, converted by molar mass.

What was measured:
Format in all cases: functional
Pseudomonas aeruginosa [1] = assay: Antibacterial activity against polymyxin-susceptible Pseudomonas aeruginosa ATCC 27853 clinical isolates assessed as reduction in bacterial growth by broth microdilution method
Pseudomonas aeruginosa [2] = assay: Antibacterial activity against Carbapenem-resistant Pseudomonas aeruginosa FADD1-PA022 clinical isolates assessed as reduction in bacterial growth by broth microdilution method
Pseudomonas aeruginosa [3] = assay: Antibacterial activity against Carbapenem-resistant Pseudomonas aeruginosa FADD1-PA001 clinical isolates assessed as reduction in bacterial growth by broth microdilution method
Pseudomonas aeruginosa [4] = assay: Antibacterial activity against polymyxin-susceptible Pseudomonas aeruginosa FADD1-PA038 clinical isolates assessed as reduction in bacterial growth by broth microdilution method
Pseudomonas aeruginosa [5] = assay: Antibacterial activity against polymyxin-susceptible Pseudomonas aeruginosa FADD1-PA025 clinical isolates assessed as reduction in bacterial growth by broth microdilution method
Acinetobacter baumannii [6] = assay: Antibacterial activity against polymyxin-susceptible Acinetobacter baumannii ATCC 19606 clinical isolates assessed as reduction in bacterial growth by broth microdilution method
Acinetobacter baumannii [7] = assay: Antibacterial activity against Carbapenem-resistant Acinetobacter baumannii FADD1-AB034 clinical isolates assessed as reduction in bacterial growth by broth microdilution method
Acinetobacter baumannii [8] = assay: Antibacterial activity against polymyxin-susceptible Acinetobacter baumannii ATCC 17978 clinical isolates assessed as reduction in bacterial growth by broth microdilution method
Acinetobacter baumannii [9] = assay: Antibacterial activity against Carbapenem-resistant Acinetobacter baumannii FADD1-AB030 clinical isolates assessed as reduction in bacterial growth by broth microdilution method
Klebsiella pneumoniae [10] = assay: Antibacterial activity against Carbapenem-resistant Klebsiella pneumoniae FADD1-KP032 clinical isolates assessed as reduction in bacterial growth by broth microdilution method
Klebsiella pneumoniae [11] = assay: Antibacterial activity against Carbapenem-resistant Klebsiella pneumoniae FADD1-KP022 clinical isolates assessed as reduction in bacterial growth by broth microdilution method
Klebsiella pneumoniae [12] = assay: Antibacterial activity against Carbapenem-resistant Klebsiella pneumoniae BM1 clinical isolates assessed as reduction in bacterial growth by broth microdilution method
Klebsiella pneumoniae [13] = assay: Antibacterial activity against polymyxin-susceptible Klebsiella pneumoniae ATCC 700721 clinical isolates assessed as reduction in bacterial growth by broth microdilution method
Klebsiella pneumoniae [14] = assay: Antibacterial activity against Carbapenem-resistant Klebsiella pneumoniae FADD1-KP065 clinical isolates assessed as reduction in bacterial growth by broth microdilution method
Enterobacter cloacae [15] = assay: Antibacterial activity against polymyxin-susceptible Enterobacter cloacae FADD1-EC006 clinical isolates assessed as reduction in bacterial growth by broth microdilution method
Enterobacter cloacae [16] = assay: Antibacterial activity against polymyxin-susceptible Enterobacter cloacae FADD1-EC001 clinical isolates assessed as reduction in bacterial growth by broth microdilution method
Enterobacter cloacae [17] = assay: Antibacterial activity against polymyxin-susceptible Enterobacter cloacae FADD1-EC003 clinical isolates assessed as reduction in bacterial growth by broth microdilution method

Row | Structure (SMILES) | MIC (Pseudomonas aeruginosa [1]) [µg/mL] | MIC (Pseudomonas aeruginosa [2]) [µg/mL] | MIC (Pseudomonas aeruginosa [3]) [µg/mL] | MIC (Pseudomonas aeruginosa [4]) [µg/mL] | MIC (Pseudomonas aeruginosa [5]) [µg/mL] | MIC (Acinetobacter baumannii [6]) [µg/mL] | MIC (Acinetobacter baumannii [7]) [µg/mL] | MIC (Acinetobacter baumannii [8]) [µg/mL] | MIC (Acinetobacter baumannii [9]) [µg/mL] | MIC (Klebsiella pneumoniae [10]) [µg/mL] | MIC (Klebsiella pneumoniae [11]) [µg/mL] | MIC (Klebsiella pneumoniae [12]) [µg/mL] | MIC (Klebsiella pneumoniae [13]) [µg/mL] | MIC (Klebsiella pneumoniae [14]) [µg/mL] | MIC (Enterobacter cloacae [15]) [µg/mL] | MIC (Enterobacter cloacae [16]) [µg/mL] | MIC (Enterobacter cloacae [17]) [µg/mL]
1 | CC[C@H](C)CCCCC(=O)N[C@@H](CCN)C(=O)N[C@H](C(=O)N[C@@H](CCN)C(=O)N[C@H]1CCNC(=O)[C@H](CCCN)NC(=O)[C@H](CCN)NC(=O)[C@H](CCN)NC(=O)[C@H](CC(C)C)NC(=O)[C@@H](Cc2ccccc2)NC(=O)[C@H](CCN)NC1=O)[C@@H](C)O | > 32 | > 32 | > 32 | > 32 | > 32 | 16 (≈ 13.2 µM) | 8 (≈ 6.58 µM) | 4 (≈ 3.29 µM) | 16 (≈ 13.2 µM) | 32 (≈ 26.3 µM) | 4 (≈ 3.29 µM) | > 32 | 32 (≈ 26.3 µM) | 4 (≈ 3.29 µM) | > 32 | 32 (≈ 26.3 µM) | 32 (≈ 26.3 µM)
2 | CC[C@H](C)CCCCC(=O)N[C@@H](CCN)C(=O)N[C@H](C(=O)N[C@@H](CCN)C(=O)N[C@H]1CCNC(=O)[C@H](COC)NC(=O)[C@H](CCN)NC(=O)[C@H](CCN)NC(=O)[C@H](CC(C)C)NC(=O)[C@@H](Cc2ccccc2)NC(=O)[C@H](CCN)NC1=O)[C@@H](C)O | 0.5 (≈ 0.415 µM) | 1 (≈ 0.831 µM) | 2 (≈ 1.66 µM) | 8 (≈ 6.65 µM) | 2 (≈ 1.66 µM) | 8 (≈ 6.65 µM) | 4 (≈ 3.32 µM) | 2 (≈ 1.66 µM) | 1 (≈ 0.831 µM) | 2 (≈ 1.66 µM) | 0.25 (≈ 0.208 µM) | 1 (≈ 0.831 µM) | 4 (≈ 3.32 µM) | 1 (≈ 0.831 µM) | 32 (≈ 26.6 µM) | 8 (≈ 6.65 µM) | 8 (≈ 6.65 µM)
3 | CC[C@H](C)CCCCC(=O)N[C@@H](CCN)C(=O)N[C@H](C(=O)N[C@@H](CCN)C(=O)N[C@H]1CCNC(=O)[C@H](Cc2c[nH]cn2)NC(=O)[C@H](CCN)NC(=O)[C@H](CCN)NC(=O)[C@H](CC(C)C)NC(=O)[C@@H](Cc2ccccc2)NC(=O)[C@H](CCN)NC1=O)[C@@H](C)O | 8 (≈ 6.45 µM) | 1 (≈ 0.807 µM) | 32 (≈ 25.8 µM) | 16 (≈ 12.9 µM) | 8 (≈ 6.45 µM) | 16 (≈ 12.9 µM) | 16 (≈ 12.9 µM) | 4 (≈ 3.23 µM) | > 32 | 16 (≈ 12.9 µM) | 8 (≈ 6.45 µM) | > 32 | 32 (≈ 25.8 µM) | 16 (≈ 12.9 µM) | > 32 | 32 (≈ 25.8 µM) | 16 (≈ 12.9 µM)
4 | CC[C@H](C)CCCCC(=O)N[C@@H](CCN)C(=O)N[C@H](C(=O)N[C@@H](CCN)C(=O)N[C@H]1CCNC(=O)[C@H](Cc2ccc(O)cc2)NC(=O)[C@H](CCN)NC(=O)[C@H](CCN)NC(=O)[C@H](CC(C)C)NC(=O)[C@@H](Cc2ccccc2)NC(=O)[C@H](CCN)NC1=O)[C@@H](C)O | 2 (≈ 1.58 µM) | 1 (≈ 0.79 µM) | 4 (≈ 3.16 µM) | 8 (≈ 6.32 µM) | 2 (≈ 1.58 µM) | 2 (≈ 1.58 µM) | 2 (≈ 1.58 µM) | 2 (≈ 1.58 µM) | 4 (≈ 3.16 µM) | 4 (≈ 3.16 µM) | 0.5 (≈ 0.395 µM) | 1 (≈ 0.79 µM) | 8 (≈ 6.32 µM) | 4 (≈ 3.16 µM) | 16 (≈ 12.6 µM) | 16 (≈ 12.6 µM) | 8 (≈ 6.32 µM)
5 | CC[C@H](C)CCCCC(=O)N[C@@H](CCN)C(=O)N[C@H](C(=O)N[C@@H](CCN)C(=O)N[C@H]1CCNC(=O)[C@H](C(C)C)NC(=O)[C@H](CCN)NC(=O)[C@H](CCN)NC(=O)[C@H](CC(C)C)NC(=O)[C@@H](Cc2ccccc2)NC(=O)[C@H](CCN)NC1=O)[C@@H](C)O | 1 (≈ 0.832 µM) | 1 (≈ 0.832 µM) | 1 (≈ 0.832 µM) | 2 (≈ 1.66 µM) | 1 (≈ 0.832 µM) | 4 (≈ 3.33 µM) | 4 (≈ 3.33 µM) | 4 (≈ 3.33 µM) | 2 (≈ 1.66 µM) | 1 (≈ 0.832 µM) | 0.25 (≈ 0.208 µM) | 1 (≈ 0.832 µM) | 8 (≈ 6.66 µM) | 1 (≈ 0.832 µM) | 16 (≈ 13.3 µM) | 4 (≈ 3.33 µM) | 2 (≈ 1.66 µM)
6 | CC[C@H](C)CCCCC(=O)N[C@@H](CCN)C(=O)N[C@H](C(=O)N[C@@H](CCN)C(=O)N[C@H]1CCNC(=O)[C@H](CCCCN)NC(=O)[C@H](CCN)NC(=O)[C@H](CCN)NC(=O)[C@H](CC(C)C)NC(=O)[C@@H](Cc2ccccc2)NC(=O)[C@H](CCN)NC1=O)[C@@H](C)O | > 32 | 1 (≈ 0.813 µM) | > 32 | > 32 | > 32 | 32 (≈ 26 µM) | 8 (≈ 6.5 µM) | 8 (≈ 6.5 µM) | 32 (≈ 26 µM) | 32 (≈ 26 µM) | 2 (≈ 1.63 µM) | > 32 | > 32 | 4 (≈ 3.25 µM) | 32 (≈ 26 µM) | 32 (≈ 26 µM) | 16 (≈ 13 µM)
